According to patent US9855538B2, “Ultrasonic method and apparatus for producing particles having a controlled size distribution” (The Board of Trustees of the University of Illinois, priority 2013, dated 2018):

Columns and labels:
[1] = Solubility of the drug in solvent / antisolvent; format: physicochemical
Text: The solute employed in the process may be any material for which a suitable solvent and antisolvent may be found. The suitability of a solvent/antisolvent system may be evaluated by comparing the solubility of the solute in the solvent with the solubility of the solute in the antisolvent. For example, the solute may have a first solubility in the solvent and a second solubility in the antisolvent, where a ratio of the first solubility to the second solubility is at least about 10:1, or at least about 100:1. A higher ratio may permit a higher particle yield to be achieved for a given concentration of solute in the solvent. Accordingly, the ratio may also be at least about 200:1 or at least about 400:1, but is typically no higher than about 800:1. As would be recognized by one of ordinary skill in the art, the solubility of solute in a given solvent may be represented in terms of milligrams of solute per milliliter of the solvent (mg/mL), and may be determined by HPLC or gravimetric analysis.

[2] = Particle size and morphology of drug particles from antisolvent sonocrystallization (optical microscope, SEM, dynamic light scattering); format: physicochemical
Text: The application of ultrasound to the induction of nucleation of drug crystals is presented in the following examples. The apparatus shown in FIG. 1 was employed for all of the experiments, using a titanium-aluminum alloy flow-through ultrasonic horn (Sonics & Materials VCX750) having a resonance frequency of 20 kHz, a 1 cm^2 tip and an outlet diameter of 4 mm. Horn intensities were calibrated by calorimetry with water. A crystallization tube having an outer diameter (OD) of 13 mm was used in each experiment. Each has different solubility characteristics and consequently its own solvent/antisolvent system. Fine particles of several drug materials, including aspirin (acetylsalicylic acid), acetaminophen (also called paracetamol, the active ingredient in Tylenol), and folic acid (vitamin B9), were prepared by antisolvent sonocrystallization.
Particles were imaged using a Canon PC1015 digital camera attached to a Zeiss Axioskop optical/fluorescence microscope with polarization analyzer or with a Hitachi 4700 SEM. Particle size distributions were measured by dynamic light scattering when possible.

CC(=O)Oc1ccccc1C(=O)O [aspirin, acetylsalicylic acid]
concentration of saturated ethanol solution ([1]; ethanol): about 400 mg/mL

Nc1nc2ncc(CNc3ccc(C(=O)N[C@@H](CCC(=O)O)C(=O)O)cc3)nc2c(=O)[nH]1 [Folic acid, folic acid]
crystal diameter ([2]; 20% aqueous ammonium hydroxide solvent, acetone antisolvent, by SEM (FIGS. 8A-8B)): about 100 nm | particle morphology (optical microscope) ([2]; saturated sodium bicarbonate solution, H2SO4 antisolvent, FIGS. 7C-7D): large needles | particle size (optical microscope) ([2]; saturated sodium bicarbonate solution, HCl antisolvent, FIGS. 7A-7B): too small to resolve optically | solubility in acetone ([1]; acetone): negligible | solubility in base ([1]; base (as the folate ion)): dissolves readily | solubility in water ([1]; neutral to moderately acidic water): very nearly insoluble | solubility in water ([1]; very low pH): quite soluble

CC(=O)Nc1ccc(O)cc1 [acetaminophen]
Resultant particle morphology ([2]; antisolvent sonocrystallization, 20 kHz, 15 W, solvent/antisolvent per experiment (Tables 1, 2)): platelike | crystal length in the largest dimension ([2]; ethanol solution, hexanes as antisolvent, FIGS. 6A and 6B): a few
